Experimental findings from patent US20140135310A1, “SULPHONAMIDE DERIVATIVES OF ALICYCLIC AMINES FOR THE TREATMENT OF CENTRAL NERVOUS SYSTEM DISEASES” (Adamed Sp. z o.o., priority 2011, published 2014) are described below.

In general, inhibition refers to the drop in the measured response relative to a control, in per cent.

The target of experiment [1] is dopaminergic receptors D2 (Homo sapiens, UniProt P14416). Description: Radioligand binding assay, dopaminergic D2 receptors. Particulars: binding assay, test compound 1×10^−6 M. An outline of the steps: (§1)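 Scintillation read-out. Specific = total − nonspecific (excess cold ligand). Data as % of control specific binding / % inhibition; IC50 by Hill fit; Ki = IC50/(1+L/KD), KD from Scatchard plot.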
dopaminergic receptors D2, sequence (P14416 whole entry): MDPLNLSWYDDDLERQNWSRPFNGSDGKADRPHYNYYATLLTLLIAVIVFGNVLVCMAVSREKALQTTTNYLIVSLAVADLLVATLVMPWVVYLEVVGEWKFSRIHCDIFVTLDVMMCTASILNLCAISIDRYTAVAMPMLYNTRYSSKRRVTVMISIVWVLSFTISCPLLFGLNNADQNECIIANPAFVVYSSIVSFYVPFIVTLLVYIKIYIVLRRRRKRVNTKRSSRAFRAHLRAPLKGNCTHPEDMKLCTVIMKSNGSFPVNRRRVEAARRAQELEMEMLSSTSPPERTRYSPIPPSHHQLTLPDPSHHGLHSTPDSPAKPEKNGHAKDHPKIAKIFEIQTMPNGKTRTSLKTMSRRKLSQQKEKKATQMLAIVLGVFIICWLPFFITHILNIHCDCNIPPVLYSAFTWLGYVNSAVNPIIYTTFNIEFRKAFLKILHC

For experiment [2], the target named is dopaminergic receptors D3 (Homo sapiens, UniProt P35462). The experiment in a line: Radioligand binding assay, dopaminergic D3 receptors. Particulars: test compound 1×10^−6 M. An outline of the steps:
as §1

Experiment [3] deals with T1, 5-HT1A receptor (rat hippocampus) (Rattus norvegicus, UniProt P19327).
T1 construct: hippocampus; from tissue; host or cells: rat hippocampus
T1 sequence (P19327 1-422): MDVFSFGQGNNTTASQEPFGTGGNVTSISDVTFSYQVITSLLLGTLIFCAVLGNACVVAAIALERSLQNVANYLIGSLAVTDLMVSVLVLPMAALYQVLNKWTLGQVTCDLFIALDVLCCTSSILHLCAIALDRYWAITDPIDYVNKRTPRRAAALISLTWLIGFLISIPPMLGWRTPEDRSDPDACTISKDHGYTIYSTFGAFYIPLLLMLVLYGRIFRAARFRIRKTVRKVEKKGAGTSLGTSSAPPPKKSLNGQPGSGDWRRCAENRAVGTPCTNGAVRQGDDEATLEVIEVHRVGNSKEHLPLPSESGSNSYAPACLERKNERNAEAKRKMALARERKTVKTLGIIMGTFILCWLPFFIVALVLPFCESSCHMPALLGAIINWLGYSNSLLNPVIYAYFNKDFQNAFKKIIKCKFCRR
The experiment in a line: Radioligand binding assay, serotoninergic 5-HT1A receptors.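 Also: test compound at 1 µM.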 As to conditions: binding assay result in %, Table 5a.

The target of experiment [4] is T2, 5-HT2A receptor (Homo sapiens, UniProt P28223).
T2 construct: purchased PerkinElmer
T2 sequence (P28223 whole entry): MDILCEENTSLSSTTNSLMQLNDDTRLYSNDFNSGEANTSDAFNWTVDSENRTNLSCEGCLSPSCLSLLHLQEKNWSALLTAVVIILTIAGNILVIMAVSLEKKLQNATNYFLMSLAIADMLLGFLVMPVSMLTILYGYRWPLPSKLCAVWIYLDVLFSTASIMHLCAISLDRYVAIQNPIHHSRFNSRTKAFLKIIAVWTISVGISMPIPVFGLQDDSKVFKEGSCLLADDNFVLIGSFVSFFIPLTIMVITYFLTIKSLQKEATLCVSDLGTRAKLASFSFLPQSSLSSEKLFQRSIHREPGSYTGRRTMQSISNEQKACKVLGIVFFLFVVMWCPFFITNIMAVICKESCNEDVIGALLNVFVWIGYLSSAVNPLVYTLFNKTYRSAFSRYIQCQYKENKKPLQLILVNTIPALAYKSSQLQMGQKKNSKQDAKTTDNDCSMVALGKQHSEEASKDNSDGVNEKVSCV
Description: Radioligand binding assay, serotoninergic 5-HT2A receptors. As to conditions: binding assay result in %, Table 5a. In short, it runs like this:
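Competition curves from scintillation-counted specific binding (total minus binding with excess unlabelled ligand) were Hill-fitted to give IC50, converted to Ki via Cheng-Prusoff using Scatchard-derived Kd.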

The target of experiment [5] is T3, 5-HT6 receptor (Homo sapiens, UniProt P50406).
T3 construct: purchased PerkinElmer
T3 sequence (P50406 whole entry): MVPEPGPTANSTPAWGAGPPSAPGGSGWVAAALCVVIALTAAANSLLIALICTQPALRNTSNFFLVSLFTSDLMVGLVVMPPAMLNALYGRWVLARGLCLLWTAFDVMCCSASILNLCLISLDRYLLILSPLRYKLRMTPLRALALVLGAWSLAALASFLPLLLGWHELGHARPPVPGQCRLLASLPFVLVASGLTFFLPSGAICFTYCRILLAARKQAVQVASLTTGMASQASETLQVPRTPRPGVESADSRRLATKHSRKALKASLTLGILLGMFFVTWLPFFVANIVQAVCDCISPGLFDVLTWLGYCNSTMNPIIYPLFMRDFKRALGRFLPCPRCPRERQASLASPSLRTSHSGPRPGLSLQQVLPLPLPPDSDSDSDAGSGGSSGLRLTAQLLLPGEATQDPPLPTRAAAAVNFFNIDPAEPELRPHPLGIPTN
The experiment in a line: Radioligand binding assay, serotoninergic 5-HT6 receptors.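 Also: test compound at 1 µM.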 Particulars: binding assay result in %, Table 5a. In short, it runs like this: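 Values are Ki from Cheng–Prusoff, taking IC50 from Hill nonlinear regression of competition curves and KD from a Scatchard plot. Specific binding was total minus binding with excess unlabelled ligand. Radioligand displacement was detected by scintillation counting, and data were also reported as percent of control specific binding.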

The target of experiment [6] is T4, 5-HT7 receptor (Homo sapiens, UniProt P34969).
T4 construct: purchased PerkinElmer
T4 sequence (P34969 whole entry): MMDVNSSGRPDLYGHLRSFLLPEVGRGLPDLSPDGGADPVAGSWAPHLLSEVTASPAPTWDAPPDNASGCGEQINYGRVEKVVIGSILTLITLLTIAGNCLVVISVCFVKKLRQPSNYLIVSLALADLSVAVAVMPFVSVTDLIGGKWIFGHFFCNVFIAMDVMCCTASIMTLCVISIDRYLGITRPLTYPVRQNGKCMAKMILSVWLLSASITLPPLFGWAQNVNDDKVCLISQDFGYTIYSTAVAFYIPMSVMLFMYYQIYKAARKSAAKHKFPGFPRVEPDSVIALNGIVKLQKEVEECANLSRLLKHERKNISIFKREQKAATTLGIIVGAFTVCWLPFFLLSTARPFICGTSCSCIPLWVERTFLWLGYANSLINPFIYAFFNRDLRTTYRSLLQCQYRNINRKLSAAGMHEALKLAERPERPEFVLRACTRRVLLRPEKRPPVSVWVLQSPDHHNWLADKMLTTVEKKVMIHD
The experiment in a line: Radioligand binding assay, serotoninergic 5-HT7 receptors.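 Also: test compound at 1 µM.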 Particulars: binding assay result in %, Table 5a. In short, it runs like this: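 Ki values used the Cheng–Prusoff equation, with KD from Scatchard analysis, applied to IC50 from Hill fits of human 5-HT7 radioligand competition curves. Bound radioligand was counted by scintillation, and excess unlabelled ligand set the non-specific binding.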

Experiment [7] concerns α1 adrenergic receptors (rat cerebral cortex). Description: Radioligand binding assay, adrenergic α1 receptors. As to conditions: test compound 1×10^−6 M. In short, it runs like this:
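Values derive from radioligand displacement, with non-specific binding defined by excess cold ligand and detection by scintillation. Hill-fit IC50s were converted to Ki via Cheng-Prusoff using Scatchard-derived Kd; percent inhibition of control specific binding also reported.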

In experiment [8] the target is T5, serotonin transporter (SERT) (Homo sapiens, UniProt P31645).
T5 construct: expressed in transfected cells; host or cells: CHO cells
T5 sequence (P31645 whole entry): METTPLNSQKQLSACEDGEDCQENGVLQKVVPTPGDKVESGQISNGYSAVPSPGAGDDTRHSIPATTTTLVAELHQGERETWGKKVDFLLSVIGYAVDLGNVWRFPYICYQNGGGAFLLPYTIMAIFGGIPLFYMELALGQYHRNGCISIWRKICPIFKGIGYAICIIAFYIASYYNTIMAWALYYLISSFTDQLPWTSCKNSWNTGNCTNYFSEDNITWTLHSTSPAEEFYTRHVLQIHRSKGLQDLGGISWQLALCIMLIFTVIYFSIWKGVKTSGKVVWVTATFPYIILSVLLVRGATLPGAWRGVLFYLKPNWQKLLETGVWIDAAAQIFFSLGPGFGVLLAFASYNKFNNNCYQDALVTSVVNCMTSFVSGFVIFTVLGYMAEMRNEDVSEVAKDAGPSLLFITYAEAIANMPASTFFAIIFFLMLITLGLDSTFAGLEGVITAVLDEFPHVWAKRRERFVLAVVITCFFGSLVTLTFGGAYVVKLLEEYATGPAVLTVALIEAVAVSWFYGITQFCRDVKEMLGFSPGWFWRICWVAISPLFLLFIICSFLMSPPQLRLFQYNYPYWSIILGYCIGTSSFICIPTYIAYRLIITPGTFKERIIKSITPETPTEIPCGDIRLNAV
The experiment in a line: Radioligand binding assay, serotonin transporter (SERT). As to conditions: binding assay, test compound 1×10^−6 M. An outline of the steps: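 Values are derived from competition curves fitted by the Hill equation to give IC50, then converted to Ki by Cheng-Prusoff with radioligand Kd from Scatchard analysis. Specific binding equals total minus non-specific (excess cold ligand), counted by scintillation, and is also expressed as percent inhibition of control.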

dopaminergic receptors D3, sequence (P35462 whole entry): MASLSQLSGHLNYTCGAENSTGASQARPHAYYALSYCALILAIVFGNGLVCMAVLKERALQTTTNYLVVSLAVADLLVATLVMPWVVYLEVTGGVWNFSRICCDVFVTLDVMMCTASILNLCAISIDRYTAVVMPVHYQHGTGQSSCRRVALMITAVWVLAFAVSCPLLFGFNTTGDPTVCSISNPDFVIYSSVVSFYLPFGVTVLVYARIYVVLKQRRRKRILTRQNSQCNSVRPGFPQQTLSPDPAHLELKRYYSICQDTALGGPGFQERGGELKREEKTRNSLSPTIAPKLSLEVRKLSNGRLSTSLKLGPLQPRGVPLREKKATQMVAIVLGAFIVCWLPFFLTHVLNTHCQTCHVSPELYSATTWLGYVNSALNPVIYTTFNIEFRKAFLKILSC

As to `O=S(=O)(NCC1CN(CCOc2cccc3c2OCCO3)C1)c1ccsc1` [Compound 191, N-[[1-[2-(2,3-Dihydro-1,4-benzodioxin-5-yloxy)ethyl]azetidin-3-yl]methyl]-thiophene-3-sulphonamide], the inhibition at 1 µM is 7% in experiment [1]; 25% in experiment [2]; 98% in experiment [3]; 42% in experiment [4]; 5% in experiment [5]; 93% in experiment [6]. Further, in experiment [8], the inhibition at 1 µM was found to be 32%. Besides, in experiment [7], the “α1 [%]” value is reported as 54%.
For the compound `O=S(=O)(NCC1CN(CCOc2cccc3c2OCCO3)C1)c1ccc(Cl)s1` [Compound 192, 5-Chloro-N-[[1-[2-(2,3-dihydro-1,4-benzodioxin-5-yloxy)ethyl]azetidin-3-yl]methyl]thiophene-2-sulphonamide], the inhibition at 1 µM in experiment [1] turned out to be 42%; in experiment [2], 70%; in experiment [3] it was 79%; in experiment [4] it was 86%; in experiment [5], 30%; in experiment [6], 97%. Further, the inhibition at 1 µM in experiment [8] amounted to 38%. For the same compound, the “α1 [%]” value in experiment [7] came out at 88%.
As for `O=S(=O)(NCC1CN(CCOc2cccc3c2OCCO3)C1)c1ccc(I)cc1` [Compound 193, N-[[1-[2-(2,3-Dihydro-1,4-benzodioxin-5-yloxy)ethyl]azetidin-3-yl]methyl]-4-iodo-benzenesulphonamide], the inhibition at 1 µM in experiment [1] worked out at 81%; in experiment [2], 55%; in experiment [3] it was 84%; in experiment [4], 88%; in experiment [5] it was 9%; in experiment [6] it was 92%. The inhibition at 1 µM in experiment [8] is 41%. In addition, the “α1 [%]” value in experiment [7] worked out at 71%.
With `O=S(=O)(NC1CCN(CCCc2noc3cc(F)ccc23)C1)c1ccc2c(c1)OCO2` (centres unmarked) [Compound 194, N-[1-[3-(6-Fluoro-1,2-benzoxazol-3-yl)propyl]pyrrolidin-3-yl]-1,3-benzo-dioxole-5-sulphonamide], the inhibition at 1 µM in experiment [1] came out at 19%; in experiment [2], 48%; in experiment [3], 63%; in experiment [4], 29%; in experiment [5] it was 53%; in experiment [6], 82%. In experiment [8], the inhibition at 1 µM is 1%. In addition, in experiment [7], the “α1 [%]” value is reported as 96%.
For the compound `O=S(=O)(NC1CCN(CCCc2noc3cc(F)ccc23)C1)c1ccc(-c2ccccc2)cc1` (centres unmarked) [Compound 195, N-[1-[3-(6-Fluoro-1,2-benzoxazol-3-yl)propyl]pyrrolidin-3-yl]-4-phenyl-benzenesulphonamide], the inhibition at 1 µM in experiment [1] was determined as 93%; in experiment [2], 82%; in experiment [3], 47%; in experiment [4] it was 101%; in experiment [5], 86%; in experiment [6], 86%. Besides, the inhibition at 1 µM in experiment [8] is 7%. In addition, the “α1 [%]” value in experiment [7] is given as 79%.
With `N#Cc1ccc(S(=O)(=O)NC2CCN(CCCc3noc4cc(F)ccc34)C2)cc1` (centres unmarked) [Compound 210, 4-Cyano-N-[1-[3-(6-fluoro-1,2-benzoxazol-3-yl)propyl]pyrrolidin-3-yl]benzenesulphonamide], the inhibition at 1 µM in experiment [1] was 64%; in experiment [2] it was 27%; in experiment [3], 8%; in experiment [4] it was 80%; in experiment [5] it was 68%; in experiment [6], 80%. For the same compound, the inhibition at 1 µM in experiment [8] is 35%. In addition, the “α1 [%]” value in experiment [7] worked out at 94%.
Turning to `O=S(=O)(NCC1CCN(CCCc2noc3cc(F)ccc23)C1)c1ccc(Cl)c(Cl)c1` (centres unmarked) [Compound 253, 3,4-Dichloro-N-[[1-[3-(6-fluoro-1,2-benzoxazol-3-yl)propyl]pyrrolidin-3-yl]methyl]benzenesulphonamide], the inhibition at 1 µM in experiment [1] stood at 87%; in experiment [2], 55%; in experiment [3] it was 34%; in experiment [4], 99%; in experiment [5], 101%; in experiment [6], 97%. Moreover, the inhibition at 1 µM in experiment [8] came to 12%. Also, the “α1 [%]” value in experiment [7] worked out at 94%.
For the compound `O=S(=O)(NCC1CCN(CCOc2cccc3ccccc23)C1)c1cc2ccccc2s1` (centres unmarked) [Compound 268, N-[[1-[2-(1-Naphthyloxy)ethyl]pyrrolidin-3-yl]methyl]benzothiophene-2-sulphonamide], the inhibition at 1 µM in experiment [1] is 54%; in experiment [2], 93%; in experiment [3], 77%; in experiment [4], 82%; in experiment [5] it was 84%; in experiment [6], 88%. Besides, the inhibition at 1 µM in experiment [8] is 85%. Further, the “α1 [%]” value in experiment [7] is reported as 9%.
On to `O=S(=O)(NCC1CCN(CCOc2cccc3ccccc23)C1)c1cc2ccc(Cl)cc2s1` (centres unmarked) [Compound 269, 6-Chloro-N-[[1-[2-(1-naphthyloxy)ethyl]pyrrolidin-3-yl]methyl]-benzothiophene-2-sulphonamide], for which the inhibition at 1 µM stood at 38% in experiment [1]; 89% in experiment [2]; 60% in experiment [3]; 91% in experiment [4]; 82% in experiment [5]; 98% in experiment [6]. Besides, the inhibition at 1 µM in experiment [8] was 53%. Also, the “α1 [%]” value in experiment [7] is recorded as −1%.
As for `O=S(=O)(NCC1CCN(CCOc2cccc3ccccc23)C1)c1ccc2cc(Cl)ccc2c1` (centres unmarked) [Compound 270, 6-Chloro-N-[[1-[2-(1-naphthyloxy)ethyl]pyrrolidin-3-yl]methyl]naphthalene-2-sulphonamide], the inhibition at 1 µM in experiment [1] turned out to be 32%; in experiment [2] it was 91%; in experiment [3] it was 47%; in experiment [4], 86%; in experiment [5], 86%; in experiment [6], 94%. Also, the inhibition at 1 µM in experiment [8] worked out at 15%. Moreover, the “α1 [%]” value in experiment [7] is given as −5%.
In the case of `Cc1c(S(=O)(=O)NCC2CCN(CCOc3cccc4ccccc34)C2)sc2ccc(F)cc12` (centres unmarked) [Compound 271, 5-Fluoro-3-methyl-N-[[1-[2-(1-naphthyloxy)ethyl]pyrrolidin-3-yl]methyl]benzothiophene-2-sulphonamide], the inhibition at 1 µM in experiment [1] is 45%; in experiment [2], 93%; in experiment [3], 82%; in experiment [4] it was 97%; in experiment [5], 76%; in experiment [6], 104%. For the same compound, the inhibition at 1 µM in experiment [8] stood at 40%. The “α1 [%]” value in experiment [7] is reported as −1%.
In the case of `Cc1c(S(=O)(=O)NCC2CCN(CCOc3cccc4ccccc34)C2)sc2ccc(Cl)cc12` (centres unmarked) [Compound 272, 5-Chloro-3-methyl-N-[[1-[2-(1-naphthyloxy)ethyl]pyrrolidin-3-yl]methyl]benzothiophene-2-sulphonamide], the inhibition at 1 µM in experiment [1] was 40%; in experiment [2], 88%; in experiment [3] it was 63%; in experiment [4], 82%; in experiment [5] it was 67%; in experiment [6] it was 88%. Moreover, the inhibition at 1 µM in experiment [8] was found to be 20%. Moreover, the “α1 [%]” value in experiment [7] was −7%.
`O=S(=O)(NCC1CCN(CCOc2cccc3ccccc23)C1)c1cccc2ccccc12` (centres unmarked) [Compound 273, N-[[1-[2-(1-Naphthyloxy)ethyl]pyrrolidin-3-yl]methyl]naphthalene-1-sulphonamide]: the inhibition at 1 µM amounted to 58% in experiment [1]; 90% in experiment [2]; 85% in experiment [3]; 95% in experiment [4]; 90% in experiment [5]; 77% in experiment [6]. Besides, the inhibition at 1 µM in experiment [8] was found to be 64%. Also, the “α1 [%]” value in experiment [7] was 25%.
